Source: ChEMBL document CHEMBL1129632, “Synthesis and contractile activities of cyclic thrombin receptor-derived peptide analogues with a Phe-Leu-Leu-Arg motif: importance of the Phe/Arg relative conformation and the primary amino group for activity” (1996)
Residues, ends and D or L forms follow the SMILES beside them.

Organism: Rattus norvegicus
Assay: Relative biological activity in gastric contractile assay of rat (Relative activity is EC(peptide)/EC (compound 4) [EC contraction of each agonist to that of compound 4])
Assay type: functional, Stomach

Row | Compound | Relative activity
1 | CC(C)C[C@H](NC(=O)[C@H](CC(C)C)NC(=O)[C@H](Cc1ccccc1)NC(=O)[C@@H](N)CO)C(=O)N[C@@H](CCCN=C(N)N)C(N)=O | 1
2 | CC(C)C[C@@H]1NC(=O)[C@H](Cc2ccccc2)NC(=O)CNC(=O)[C@H](CCCN=C(N)N)NC(=O)[C@H](CC(C)C)NC1=O (HELM PEPTIDE1{F.L.L.R.G}$PEPTIDE1,PEPTIDE1,1:R1-5:R2$$$V2.0) | 390
3 | CC(C)C[C@@H]1NC(=O)[C@H](CC(C)C)NC(=O)[C@H](Cc2ccccc2)NC(=O)[C@@H](N)CCCCNC(=O)[C@H](CCCN=C(N)N)NC1=O (HELM PEPTIDE1{K.F.L.L.R}$PEPTIDE1,PEPTIDE1,1:R3-5:R2$$$V2.0) | 2.4
4 | CC(C)C[C@@H]1NC(=O)[C@H](Cc2ccccc2)NC(=O)CCCCCNC(=O)[C@H](CCCN=C(N)N)NC(=O)[C@H](CC(C)C)NC1=O (single isomer, unassigned) | >1000
